In patent US4695569A, “Bicyclic heterocyclyl containing N-(bicyclic heterocyclyl)-4-piperidinamines” (Janssen Pharmaceutica N.V., priority 1987, dated 1987):
Counter-ions that a name gives are not always drawn. Like-named read-outs stand apart in the source and are kept apart here.

Legend:
[1] = system: serotonin; assay: Antagonistic activity on the effects of serotonin in the gastric lesion test (lesions induced by compound 48/80); format: in vivo, rat (male, Wistar inbred strain)
Source text: The compounds of formula (I) and the pharmaceutically acceptable acid addition salts thereof are also potent serotonin-antagonists. The potency of the subject compounds as serotonin-antagonists is clearly evidenced by the results obtained in the following tests wherein the antagonistic activity of the subject compounds on the effect of serotonin is examined.
Antagonistic activity on the effects of serotonin in the gastric lesion test
Comound 48/80 (a mixture of oligomers obtained by condensation of 4-methoxy-N-methylbenzeneethanamine and formaldehyde) is a potent releaser of vasoactive amines from endogenous stores such as, for example, histamine and serotonin. […] The shock, followed by dead, can be avoided if the rats are pretreated with a classical H 1 antagonist.
Male rats of a Wistar inbred strain, weighing 220-250 g, were starved overnight, water being available ad libitum. The test compounds were administered orally as a solution or as a suspension in aqueous medium. A control rat and a "blank" rat received the test compound. One hour later 5-[4-(diphenylmethyl)-1-piperazinylmethyl]-1-methyl-1H-benzimidazole-2-methanol was administered subcutaneously to all rats at the dose of 2.5 mg/kg.
Four hours after the intravenous injection of compound 48/80, the rats were decapitated and the stomachs were removed. Subsequently the stomachs ere inspected for distension and contents (blood, fluid, food) and thoroughly rinsed. The macroscopic lesions were scored from 0 to +++, 0 corresponding to complete absence of visible lesions and the highest score corresponding to reddish rough patches covering more than half the glandular area.

[2] = system: compound 48/80-induced lethality; assay: Protection of rats from compound 48/80-induced lethality; format: in vivo, rat (male, inbred Wistar strain); conditions: Rattus norvegicus, 4 h, read-out: Compound 48/80 lethality test in rats-ED50
Description: Protection of rats from compound 48/80-induced lethality
The protection from compound 48/80-induced lethal circulatory collapse appears to be a simple way of evaluating quantitatively the antihistaminic activity of test compounds. Male rats of an inbred Wistar strain, weighing 240-260 g were used in the experiment. After overnight starvation the rats were transferred to conditioned laboratories (temp.=21±1° C., relative humidity=65±5%).
The rats were treated subcutaneously or orally with a test compound or with the solvent (NaCl solution, 0.9%). […] Survival after 4 hours is therefore considered to be a safe criterion of a protective effect of drug administration.
The ED50 -values of the compounds of formula (I) are listed in the first column of table 1. Said ED50 -values are the values in mg/kg body weight at which the tested compounds protect 50% of the tested animals against compound 48/80-induced lethality.

[3] = Rattus norvegicus, po, 4 h; read-out: gastric lesion test ED50 (distension of the stomach and lesions in the glandular area completely absent in 50% of rats)
[4] = Rattus norvegicus, po, 4 h, read-out: gastric lesion test ED50 (distension of the stomach and lesions in the glandular area completely absent in 50% of rats)

Row | SMILES | ED50 [1, 3] [mg/kg] | ED50 [2] [mg/kg] | ED50 [1, 4] [mg/kg]
1 | Cc1nc2n(c(=O)c1CCN1CCC(Nc3nc4ccccc4n3Cc3ccc(F)cc3)CC1)CCCS2 [Compound 15] | 0.31 | 0.16 | 
2 | Fc1ccc(Cn2c(NC3CCN(CCNc4ncnc5c4ncn5Cc4ccccc4)CC3)nc3ccccc32)cc1 [Compound 95] | 0.63 | 0.16 | 
3 | c1coc(Cn2c(NC3CCN(CCNc4nc5cnccc5[nH]4)CC3)nc3cccnc32)c1 [Compound 119] | 0.63 | 0.04 | 
4 | Fc1ccc(Cn2c(NC3CCN(CCNc4nc5cnccc5[nH]4)CC3)nc3ccccc32)cc1 [Compound 109] | 0.04 | 0.04 | 
5 | Cn1cnc2c1c(=O)n(CCN1CCC(Nc3nc4ccccc4n3Cc3ccco3)CC1)c(=O)n2C [Compound 11] | 0.04 | 0.08 | 
6 | Cc1nc2scc(C)n2c(=O)c1CCN1CCC(Nc2nc3ccccc3n2Cc2ccc(F)cc2)CC1 [Compound 1, 6-[2-[4-[[1-[(4-fluorophenyl)methyl]-1H-benzimidazol-2-yl]amino]-1-piperidinyl]ethyl]-3,7-dimethyl-5H-thiazolo[3,2-a]pyrimidin-5-one] | 0.63 | 0.31 | 
7 | Cc1nc2ccc(Cl)cn2c(=O)c1CCN1CCC(Nc2nc3cccnc3n2Cc2ccco2)CC1 [Compound 21] | 0.63 | 0.04 | 
8 | c1coc(Cn2c(NC3CCN(CCNc4nc5cnccc5[nH]4)CC3)nc3ccccc32)c1 [Compound 111] | 0.08 | 0.02 | 
9 | Cc1cc(C)n2c(=O)c(CCN3CCC(Nc4nc5cccnc5n4Cc4ccco4)CC3)c(C)nc2c1 [Compound 77] | 0.31 | 0.16 | 
10 | OCCn1cnc2c(NCCN3CCC(Nc4nc5ccccc5n4Cc4ccc(F)cc4)CC3)ncnc21 [Compound 93, 6-[[2-[4-[[1-[(4-fluorophenyl)methyl]-1H-benzimidazol-2-yl]amino]-1-piperidinyl]ethyl]amino]-9H-purine-9-ethanol] | 0.16 | 0.08 | 
11 | c1ccc(Cn2c(NC3CCN(CCNc4nc5cnccc5[nH]4)CC3)nc3ccccc32)nc1 [Compound 115] |  | 0.02 | 0.16
12 | Fc1ccc(Cn2c(NC3CCN(Cc4cn5ccncc5n4)CC3)nc3ccccc32)cc1 [Compound 49] | 0.63 | 0.16 | 
13 | Cc1nc2ccccn2c(=O)c1CCN1CCC(Nc2nc3ccccc3n2Cc2ccc(F)cc2)CC1 [Compound 4] |  | 0.16 | 0.31
14 | Cc1nc2ccccn2c(=O)c1CCN1CCC(Nc2nc3ccccc3n2Cc2cscn2)CC1 [Compound 19] | 0.01 | 0.08 | 
15 | Cc1nc2ccccn2c(=O)c1CCN1CCC(Nc2nc3ccccc3n2Cc2cccs2)CC1 [Compound 52] |  | 0.31 | 1.25
16 | Cc1nc2n(c(=O)c1CCN1CCC(Nc3nc4ccccc4n3Cc3cccs3)CC1)CCCC2 [Compound 59] | 0.31 | 0.08 | 
17 | Cc1nc2n(c(=O)c1CCN1CCC(Nc3nc4ccccc4n3Cc3cscn3)CC1)CCCC2 [Compound 62] |  | 0.04 | 0.63
18 | CCOC(=O)N1CCc2nc(NCCN3CCC(Nc4nc5ccccc5n4Cc4ccc(F)cc4)CC3)sc2C1 [Compound 147, ethyl 2-[[2-[4-[[1-[4-fluorophenyl)methyl]-1H-benzimidazol-2-yl]amino]-1-piperidinyl]ethyl]amino]-4,5-dihydro-thiazolo[4,5-d]pyridine-6(7H)-carboxylate (E)-2-butenedioate (1:2) monohydrate] | 0.63 | 0.31 | 

Row | SMILES | ED50 [1, 3] [mg/kg] | ED50 [2] [mg/kg] | ED50 [1, 4] [mg/kg]
19 | Cc1ccn2c(=O)c(CCN3CCC(Nc4nc5cccnc5n4Cc4ccco4)CC3)c(C)nc2c1 [Compound 74] | 0.16 | 0.04 | 
20 | Cn1cnc2c1c(=O)n(CCN1CCC(Nc3nc4ccccc4n3Cc3ccc(F)cc3)CC1)c(=O)n2C [Compound 8] |  | 0.16 | 0.63
21 | Fc1ccc(Cn2c(NC3CCN(CCNc4ncnc5[nH]cnc45)CC3)nc3ccccc32)cc1 [Compound 97] | 0.04 | 0.08 | 
22 | Fc1ccc(Cn2c(NC3CCN(CCn4c(=S)[nH]c5cncnc54)CC3)nc3ccccc32)cc1 [Compound 143, 9-[2-[4-[[1-[(4-fluorophenyl)methyl]-1H-benzimidazol-2-yl]amino]-1-piperidinyl]ethyl]-7,9-dihydro-8H-purine-8-thione trihydrochloride.dihydrate] | 0.63 | 0.31 | 
23 | Fc1ccc(Cn2c(NC3CCN(CCNc4nc5cccnc5s4)CC3)nc3ccccc32)cc1 [Compound 103, N-[2-[4-[[1-[(4-fluorophenyl)methyl]-1H-benzimidazol-2-yl]amino]-1-piperidinyl]ethyl]thiazolo[5,4-b]pyridin-2-amine] | 0.63 | 0.16 | 
24 | Fc1ccc(Cn2c(NC3CCN(CCCNc4nc5cnccc5[nH]4)CC3)nc3ccccc32)cc1 [Compound 122, N-[3-[4-[[1-[(4-fluorophenyl)methyl]-1H-benzimidazol-2-yl]amino]-1-piperidinyl]propyl]-1H-imidazo[4,5-c]pyridin-2-amine ethanedioate(2:7)] | 0.63 | 0.02 | 
25 | Cn1c(=O)n(CCN2CCC(Nc3nc4ccccc4n3Cc3ccco3)CC2)c(=O)c2ccccc21 [Compound 34] | 0.16 | 0.08 | 
26 | Cc1nc2n(c(=O)c1CCN1CCC(Nc3nc4ccccc4n3Cc3ccc(F)cc3)CC1)CCS2 [Compound 17] | 0.63 | 0.31 | 
27 | Cl.Cl.Cl.Fc1ccc(Cn2c(NC3CCN(Cc4cn5c(n4)CNCC5)CC3)nc3ccccc32)cc1 [Compound 152, 1-[(4-fluorophenyl)methyl]-N-[1-[(5,6,7,8-tetrahydroimidazo[1,2-a]pyrazin-2-yl)methyl]-4-piperidinyl]-1H-benzimidazol-2-amine trihydrochloride] | 0.63 | 0.08 | 
28 | Fc1ccc(Cn2c(NC3CCN(CCNc4nc5cnccc5s4)CC3)nc3ccccc32)cc1 [Compound 104, N-[2-[4-[[1-[(4-fluorophenyl)methyl]-1H-benzimidazol-2-yl]amino]-1-piperidinyl]ethyl]thiazolo[4,5-c]pyridin-2-amine] | 0.31 | 0.16 | 
29 | Cn1cnc2c(NCCN3CCC(Nc4nc5ccccc5n4Cc4ccc(F)cc4)CC3)ncnc21 [Compound 94] | 0.63 | 0.31 | 
30 | Cc1nc2ccccn2c(=O)c1CCN1CCC(Nc2nc3cccnc3n2Cc2ccccn2)CC1 [Compound 55] | 0.16 | 0.08 | 
31 | Cc1nc2n(c(=O)c1CCN1CCC(Nc3nc4ccccc4n3Cc3ccco3)CC1)CCCS2 [Compound 13] | 0.08 | 0.02 | 
32 | Cc1nc2scc(C)n2c(=O)c1CCN1CCC(Nc2nc3ccccc3n2Cc2ccco2)CC1 [Compound 9] | 0.16 | 0.08 | 
33 | Cc1nc2n(c(=O)c1CCN1CCC(Nc3nc4cccnc4n3Cc3ccco3)CC1)C(C)CC(C)C2 (stereo not drawn) [Compound 63] | 0.63 | 0.08 | 
34 | Cc1ccc2nc(C)c(CCN3CCC(Nc4nc5cccnc5n4Cc4ccco4)CC3)c(=O)n2c1 [Compound 20] | 0.63 | 0.04 | 
35 | Fc1ccc(Cn2c(NC3CCN(CCNc4nc5cnccc5[nH]4)CC3)nc3ncccc32)cc1 [Compound 112] | 0.16 | 0.02 | 
36 | Fc1ccc(Cn2c(NC3CCN(CCNc4nc5cnccc5[nH]4)CC3)nc3cccnc32)cc1 [Compound 114] | 0.63 | 0.02 | 
